Data as given in paper PMC11284788, “NN1213 – A Potent, Long-Acting, and Selective Analog of Human Amylin” (Journal of Medicinal Chemistry, 2024).

Experiments:
cAMY1R [1] = assay: Whole-cell competition binding, cAMY1R; settings: IC50 for the CTR divided by that of the AMYR, canine receptors
cAMY3R [2] = assay: Whole-cell competition binding, cAMY3R; settings: IC50 for the CTR divided by that of the AMYR, canine receptors
[3] = cited from earlier work
Text: The major chemical degradation products of pramlintide have been identified to include deamidation and isomerization of asparagine residues in positions 3, 21, and 22 and to a lesser degree in positions 14 and 35.[22] Reduction of these deamidation reactions in pramlintide has been obtained by acidic formulation.[23]

cCTR = assay: Species-specific cAMP assay, cCTR; settings: cAMP HTRF, transiently transfected BHK cells, 30 min room temperature, five experiments
cAMY1R [4] = assay: Species-specific cAMP assay, cAMY1R
cAMY3R [5] = assay: Species-specific cAMP assay, cAMY3R
mCTR = biological target: T1, mCTR (Mus musculus, UniProt Q60755); assay: Mouse receptor cAMP HTRF assay (BacMam, HeLa), mCTR
T1 sequence (Q60755 42-496 isoform Q60755-2 limits assumed): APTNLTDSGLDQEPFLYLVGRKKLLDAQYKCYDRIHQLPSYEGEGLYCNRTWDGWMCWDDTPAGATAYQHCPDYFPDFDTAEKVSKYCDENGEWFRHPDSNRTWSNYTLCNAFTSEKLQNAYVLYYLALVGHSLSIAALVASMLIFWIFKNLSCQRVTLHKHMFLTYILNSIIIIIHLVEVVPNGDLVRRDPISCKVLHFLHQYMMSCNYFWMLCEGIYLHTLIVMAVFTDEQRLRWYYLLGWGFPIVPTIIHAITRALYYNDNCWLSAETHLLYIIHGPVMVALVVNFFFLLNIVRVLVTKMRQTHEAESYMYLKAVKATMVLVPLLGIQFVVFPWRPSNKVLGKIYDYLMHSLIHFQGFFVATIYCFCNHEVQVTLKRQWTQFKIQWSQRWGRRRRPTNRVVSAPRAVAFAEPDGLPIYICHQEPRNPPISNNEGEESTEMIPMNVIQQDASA
Method: (§1) Mouse Receptors (Functional Assay Only). Cell culture: HeLa cells were cultured in an incubator at 37 °C and 5% CO2, in cell culture medium (DMEM with 10% [v/v] FBS, 1% [w/w] penicillin/streptomycin).
(§2) Cell seeding in T75 flasks (day 1): The day before transfection of the cells, 2 x 10^6 HeLa cells were seeded in three T75 flasks and incubated overnight. Media was removed from 1–2 T175 flasks and cells were washed once with Dulbecco PBS (with Mg2+ and Ca2+). Cells were detached with 2 mL TrypLE Express for 5 min in an incubator. Five mL pre-warmed media was added to each T75 flask and mixed with the cell suspension. Cells were counted in 100 µL of this suspension. The cell suspension was centrifuged at 1200 rpm for 4 min and the supernatant was discarded. The cells were re-suspended in media and 2 x 10^6 cells were seeded in approximately 15 mL in each of the three T75 flasks. The flasks were incubated overnight.
(§3) with 20 µL poly-d-lysin/well for 2–3 h at 37 °C. The plates were washed twice with PBS and allowed
(§4) Transfection of cells (day 2): Reagents were acclimated to room temperature for 30 min. Media was
(§5) removed from the T75 flasks, and cells were washed once with PBS (with Mg2+ and Ca2+). Cells were
(§6) Seeding of transfected cells in assay plates (day 2): Following the 3-h transduction, T75 flasks were
(§7) washed once with PBS (with Mg2+ and Ca2+). […]
mL pre-warmed media and counted.

mAMY3R = biological target: T2, mAMY3R (Mus musculus, UniProt Q60755+Q9WUP1); assay: Mouse receptor cAMP HTRF assay (BacMam, HeLa), mAMY3R; settings: ratio of cAMP EC50 values, mouse receptors
T2 sequence (Q60755 42-496 isoform Q60755-2 limits assumed): T1 sequence (Q60755 42-496 isoform Q60755-2 limits assumed)
T2 sequence (Q9WUP1 24-147 partner limits assumed): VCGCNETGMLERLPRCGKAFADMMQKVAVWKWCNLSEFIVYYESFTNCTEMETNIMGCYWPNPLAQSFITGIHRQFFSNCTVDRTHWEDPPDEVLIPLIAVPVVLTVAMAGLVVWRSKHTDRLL
Method: as §1, §2, §3, §4, §5, §6, §7
mL pre-warmed media and counted.

[6] = cAMP HTRF, transiently transfected BHK cells, 30 min room temperature, five experiments
[7] = ratio of cAMP EC50 values, canine receptors

SMILES: CC[C@H](C)[C@H](NC(=O)[C@@H]1CCCN1C(=O)CNC(=O)[C@H](Cc1ccccc1)NC(=O)[C@H](CC(N)=O)NC(=O)[C@H](CC(N)=O)NC(=O)[C@H](CO)NC(=O)[C@H](CO)NC(=O)[C@H](Cc1c[nH]cn1)NC(=O)[C@@H](NC(=O)[C@H](CC(C)C)NC(=O)[C@H](Cc1ccccc1)NC(=O)[C@H](CC(N)=O)NC(=O)[C@H](C)NC(=O)[C@H](CC(C)C)NC(=O)[C@H](CCCNC(=N)N)NC(=O)[C@H](CCC(N)=O)NC(=O)[C@@H](NC(=O)[C@H](C)NC(=O)[C@@H]1CSSC[C@H](NC(=O)[C@@H](N)CCCCN)C(=O)N[C@@H](CC(N)=O)C(=O)N[C@@H]([C@@H](C)O)C(=O)N[C@@H](C)C(=O)N[C@@H]([C@@H](C)O)C(=O)N1)[C@@H](C)O)C(C)C)C(=O)N[C@@H](CC(C)C)C(=O)N1CCC[C@H]1C(=O)N1CCC[C@H]1C(=O)N[C@H](C(=O)N[C@@H](CC(N)=O)C(=O)N[C@H](C(=O)NCC(=O)N[C@@H](CO)C(=O)N[C@@H](CC(N)=O)C(=O)N[C@H](C(=O)N[C@@H](Cc1ccc(O)cc1)C(N)=O)[C@@H](C)O)C(C)C)[C@@H](C)O [pramlintide, reference compound]
- Ratio CTR/AMY1R (canine, binding) (cAMY1R [1]): 67
- Ratio CTR/AMY3R (canine, binding) (cAMY3R [2]): 112
- half-life in plasma [3]: 30 to 50 min
- cCTR pEC50 (cCTR): 10.90
- cAMY1R pEC50 (cAMY1R [4]; [6]): 10.77
- Ratio CTR/AMY1R (canine, functional) (cAMY1R [4]; [7]): 1
- cAMY3R pEC50 (cAMY3R [5]; [6]): 10.88
- Ratio CTR/AMY3R (canine, functional) (cAMY3R [5]; [7]): 1
- EC50 (mCTR): 3.09 nM
- Ratio CTR/AMY3R (mouse, functional) (mAMY3R): 8
